Results: patent US11866430B2, “Naphthyridinone compounds useful as T cell activators” (priority 2018, dated 2024)
Read-outs that look alike come from different tables or passages of the source.

Assays:
[1] = test system: pre-activated CD4 T cells and Raji cells; assay: Raji CD4 T Cell IL2 Assay; format: cell-based
human DGKα [2] = target: T1, human DGKα (Homo sapiens (Human), UniProt P23743); assay: biochemical; settings: detergent/lipid micelle substrate; read-out: DGKα IC50
How it was run: (§1)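 Full-length human DGKα or DGKζ (C-terminal His tag, Sf9-expressed; 20 nM 4× stock) was preincubated 10 min at room temperature with PS/DAG octyl glucoside micelles in MOPS pH 7.5 buffer with MgCl2, CaCl2 and DTT. It was then started with ATP (300 uM addition) and run for 1 hr, with ADP-Glo luminescence read-out.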

human DGKζ [3] = target: T2, human DGKζ (Homo sapiens (Human), UniProt Q13574); assay: DGKζ LIPGLO assay (extruded liposome substrate); format: biochemical
T2 sequence (Q13574 other isoform, or with tags, fused parts or gaps): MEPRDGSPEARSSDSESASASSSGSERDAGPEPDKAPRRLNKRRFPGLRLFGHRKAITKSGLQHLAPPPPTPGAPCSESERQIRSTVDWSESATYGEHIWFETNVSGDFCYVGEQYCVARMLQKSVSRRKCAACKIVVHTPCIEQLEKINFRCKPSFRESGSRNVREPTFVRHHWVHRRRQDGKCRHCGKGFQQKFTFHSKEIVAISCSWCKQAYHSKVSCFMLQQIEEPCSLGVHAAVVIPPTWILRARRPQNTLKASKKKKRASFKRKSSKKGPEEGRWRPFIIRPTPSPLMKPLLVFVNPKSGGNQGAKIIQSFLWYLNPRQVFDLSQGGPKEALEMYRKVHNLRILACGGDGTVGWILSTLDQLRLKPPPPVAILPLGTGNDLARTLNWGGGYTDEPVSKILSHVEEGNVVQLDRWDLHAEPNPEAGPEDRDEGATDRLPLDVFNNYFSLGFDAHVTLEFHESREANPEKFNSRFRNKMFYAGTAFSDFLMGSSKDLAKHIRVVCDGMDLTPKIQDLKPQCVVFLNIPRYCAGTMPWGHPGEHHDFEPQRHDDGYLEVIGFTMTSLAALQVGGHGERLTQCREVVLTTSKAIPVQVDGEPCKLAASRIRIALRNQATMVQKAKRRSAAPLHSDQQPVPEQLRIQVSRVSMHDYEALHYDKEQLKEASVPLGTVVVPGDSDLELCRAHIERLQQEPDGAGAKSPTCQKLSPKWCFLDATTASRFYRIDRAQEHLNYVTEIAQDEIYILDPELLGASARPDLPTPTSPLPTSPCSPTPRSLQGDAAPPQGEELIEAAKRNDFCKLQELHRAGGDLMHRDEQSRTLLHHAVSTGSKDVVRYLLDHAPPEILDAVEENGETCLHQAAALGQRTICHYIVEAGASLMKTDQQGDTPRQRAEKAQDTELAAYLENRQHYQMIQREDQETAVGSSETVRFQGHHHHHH
Protocol: (§2) The DGKα and DGKζ reactions were performed using either extruded liposome (DGKα and DGKζ LIPGLO assays) or detergent/lipid micelle substrate (DGKα and DGKζ assays). The reactions were carried out in 50 mM MOPS pH 7.5, 100 mM NaCl, 10 mM MgCl2, 1 μM CaCl2, and 1 mM DTT (assay buffer). The reactions using a detergent/lipid micelle substrate also contained 50 mM octyl B-D-glucopyranoside.
(§3) A 5 mL enzyme/substrate solution at 2× final reaction concentration was prepared by combining 2.5 mL 4× enzyme solution (20 nM DGKα or DGKζ (prepared as described below) in assay buffer) and 2.5 mL of either 4× liposome or 4× detergent/lipid micelle solution (compositions described below) and incubated at room temperature for 10 minutes. Next, 1 μL 2× enzyme/substrate solution was added to wells containing the test compound and reactions were initiated with the addition of 1 μL 300 uM ATP. The reactions were allowed to proceed for 1 hr, after which 2 μL Glo Reagent (Promega V9101) was added and incubated for 40 minutes. Next, 4 μL Kinase Detection Reagent was added and incubated for 30 minutes. Luminescence was recorded using an EnVision microplate reader. […] The compounds were evaluated at 11 concentrations to determine IC50.
(§4) The PC, DAG, and PS were dissolved in chloroform, combined, and dried in vacuo to a thin film. The lipids were hydrated to 20 mM in 50 mM MOPS pH 7.5, 100 mM NaCl, 5 mM MgCl2, and were freeze-thawed five times. The lipid suspension was extruded through a 100 nm polycarbonate filter eleven times. […] The liposome preparation was stored at 4° C. for as long as four weeks.
Baculovirus amplification was achieved using infected Sf9 cells at 1:1500 virus/cell ratios, and grown for 65 hours at 27° C. post-transfection.
(§5) The expression scale up for each protein was carried out in the Cellbag 50 L WAVE-Bioreactor System 20/50 from GE Healthcare Bioscience. 12 L of 2×10^6 cells/mL Sf9 cells (Expression System, Davis, Calif.) grown in ESF921 insect medium (Expression System) were infected with virus stock at 1:200 virus/cell ratios, and grown for 66-68 hours at 27° C. post-infection. The infected cell culture was harvested by centrifugation at 2000 rpm for 20 min 4° C. in a SORVALL® RC12BP centrifuge. The cell pellets were stored at −70° C. until purification.
The cells were lysed using nitrogen cavitation method with a nitrogen bomb (Parr Instruments), and the lysates were clarified by centrifugation. […] The three steps column chromatography included nickel affinity resin capture (i.e. HisTrap FF crude, GE Healthcare), followed by size exclusion chromatography (i.e. HiLoad 26/600 Superdex 200 prep grade, GE Healthcare for DGK-alpha, and HiPrep 26/600 Sephacryl S 300_HR, GE Healthcare for DGK-zeta). The third step was ion exchange chromatography, and differed for the two isoforms. DGKα was polished using Q-Sepharose anion exchange chromatography (GE Healthcare). DGKζ was polished using SP Sepharose cation exchange chromatography (GE Healthcare). The proteins were delivered at concentrations of ≥2 mg/mL. The formulation buffers were identical for both proteins: 50 mM Hepes, pH 7.2, 500 mM NaCl, 10% v/v glycerol, 1 mM TCEP, and 0.5 mM EDTA.

human DGKζ [4] = target: T2, human DGKζ; assay: DGKζ assay (detergent/lipid micelle substrate); format: biochemical
How it was run: as §1

human DGKα [5] = target: T1, human DGKα; assay: DGKα LIPGLO assay (extruded liposome substrate); format: biochemical
Protocol: as §2, with “B-D-glucopyranoside. […] The lipid substrate concentrations were […], 0.25 mM DAG, and 2.75 mM PC for the extruded liposome reactions.” for “B-D-glucopyranoside.”
as §3, with “The compound inhibition studies were carried out as follows: 50 nL droplets of each test compound (top concentration 10 mM with 11 point, 3-fold dilution series for each compound) solubilized in DMSO were transferred to wells of a white 1536 well plate (Corning 3725). A 5” for “A 5”
as §4
Human DGK-alpha-TVMV-His-pFBgate and human DCK-zeta-transcript variant-2-TVMV-His-pFBgate baculovirus samples were generated using the Bac-to-Bac baculovirus expression system (Invitrogen) according to the manufacturer's protocol. The DNA used for expression of DGK-alpha and DGK-zeta have SEQ ID NOs: 1 and 3, respectively. Baculovirus amplification was achieved using infected Sf9 cells at 1:1500 virus/cell ratios, and grown for 65 hours at 27° C. post-transfection.
as §5
Full length human DGKα and DGKζ, each expressed containing a TVMV-cleavable C-terminal Hexa-His tag sequence (SEQ ID NOs: 2 and 4, respectively) and produced as described above, were purified from Sf) baculovirus-infected insect cell paste. The cells were lysed using nitrogen cavitation method with a nitrogen bomb (Parr Instruments), and the lysates were clarified by centrifugation. […] The three steps column chromatography included nickel affinity resin capture (i.e. HisTrap FF crude, GE Healthcare), followed by size exclusion chromatography (i.e. HiLoad 26/600 Superdex 200 prep grade, GE Healthcare for DGK-alpha, and HiPrep 26/600 Sephacryl S 300_HR, GE Healthcare for DGK-zeta). The third step was ion exchange chromatography, and differed for the two isoforms.

[6] = DGKζ LIPGLO IC50, extruded liposome substrate
[7] = DGKζ IC50, detergent/lipid micelle substrate
[8] = extruded liposome substrate, read-out: DGKζ LIPGLO IC50
[9] = detergent/lipid micelle substrate, read-out: DGKζ IC50

T1 sequence (P23743 other isoform, or with tags, fused parts or gaps): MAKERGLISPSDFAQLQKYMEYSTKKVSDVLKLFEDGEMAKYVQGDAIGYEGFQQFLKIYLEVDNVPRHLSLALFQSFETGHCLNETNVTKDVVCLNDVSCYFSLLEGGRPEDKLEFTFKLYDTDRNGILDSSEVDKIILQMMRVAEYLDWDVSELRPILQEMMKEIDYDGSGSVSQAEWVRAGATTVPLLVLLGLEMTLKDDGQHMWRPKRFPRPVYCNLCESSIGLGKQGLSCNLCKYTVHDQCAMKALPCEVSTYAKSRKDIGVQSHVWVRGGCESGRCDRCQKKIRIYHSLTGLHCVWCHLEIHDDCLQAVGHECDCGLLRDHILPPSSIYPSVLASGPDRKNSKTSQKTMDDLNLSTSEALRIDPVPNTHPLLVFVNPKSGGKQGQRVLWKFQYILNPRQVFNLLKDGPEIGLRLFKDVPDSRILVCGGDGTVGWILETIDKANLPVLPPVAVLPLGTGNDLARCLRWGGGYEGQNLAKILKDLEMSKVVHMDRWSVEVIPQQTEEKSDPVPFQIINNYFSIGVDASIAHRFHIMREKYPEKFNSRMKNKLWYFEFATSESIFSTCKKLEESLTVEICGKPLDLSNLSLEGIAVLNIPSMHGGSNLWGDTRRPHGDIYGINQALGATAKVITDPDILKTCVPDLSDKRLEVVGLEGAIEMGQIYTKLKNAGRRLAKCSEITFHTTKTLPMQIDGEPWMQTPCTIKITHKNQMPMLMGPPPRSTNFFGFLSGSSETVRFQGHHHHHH

Compound | IC50 [1] | IC50 (human DGKα [2]) | IC50 (human DGKζ [3]; [6]) | IC50 (human DGKζ [4]; [7]) | IC50 (human DGKα [5]) | IC50 ([1]; Homo sapiens, Raji) | IC50 (human DGKζ [3]; [8]) | IC50 (human DGKζ [4]; [9])
CCC(c1ccc(F)cc1)N1CCN(c2c([N+](=O)[O-])c(=O)n(C)c3ccc(C#N)nc23)CC1 (single isomer, unassigned) [Example 34, 8-{4-[1-(4-fluorophenyl)propyl]piperazin-1-yl}-5-methyl-7-nitro-6-oxo-5,6-dihydro-1,5-naphthyridine-2-carbonitrile] | 35 nM | 180 nM | 3.4 µM | 23 µM | 290 nM | – | – | –
Cn1c(=O)c(C#N)c(N2CCN(C(c3ccc(F)cc3)C3CC3)CC2)c2nc(Br)ccc21 (stereo not drawn) [Example 35, 6-bromo-4-{4-[cyclopropyl(4-fluorophenyl)methyl]piperazin-1-yl}-1-methyl-2-oxo-1,2-dihydro-1,5-naphthyridine-3-carbonitrile] | – | 140 nM | – | – | 990 nM | 210 nM | 81 µM | > 240 µM
Cc1ccc2c(n1)c(N1CCN(C(c3ccc(F)cc3)c3ccc(F)cc3)CC1)c(C#N)c(=O)n2C [Example 226, 4-(4-(bis(4-fluorophenyl)methyl)piperazin-1-yl)-1,6-dimethyl-2-oxo-1,2-dihydro-1,5-naphthyridine-3-carbonitrile] | – | 1600 nM | – | – | 3900 nM | 84 nM | 10 µM | 70 µM
CCC(c1ccc(F)cc1)N1CCN(c2c([N+](=O)[O-])c(=O)n(C)c3ccc(C#N)nc23)CC1 (single isomer, unassigned) [Example 33, 8-{4-[1-(4-fluorophenyl)propyl]piperazin-1-yl}-5-methyl-7-nitro-6-oxo-5,6-dihydro-1,5-naphthyridine-2-carbonitrile] | – | 750 nM | 1.7 µM | 7.6 µM | 1700 nM | 18 nM | – | –
C#CCn1c(=O)c(C#N)c(N2CCN(Cc3ccc(F)cc3O)CC2)c2nc(Br)ccc21 [Example 67, 6-bromo-4-(4-(4-fluoro-2-hydroxybenzyl)piperazin-1-yl)-2-oxo-1-(prop-2-yn-1-vi)-1,2-dihydro-1,5-naphthyridine-3-carbonitrile] | – | 130 nM | – | – | 4800 nM | 6.6 nM | 12 µM | 13 µM
Cn1c(=O)c(C#N)c(N2CCN(Cc3cc(F)cc(C(F)(F)F)c3)CC2)c2nc(Cl)ccc21 [Example 313, 6-chloro-4-(4-{[3-fluoro-5-(trifluoromethyl)phenyl]methyl}piperazin-1-yl)-1-methyl-2-oxo-1,2-dihydro-1,5-naphthyridine-3-carbonitrile] | – | 1500 nM | – | – | 17000 nM | 250 nM | 62 µM | > 81 µM
Cn1c(=O)c(C#N)c(N2CCN(Cc3ccc(F)cc3O)CC2)c2nc(Br)ccc21 [Example 192, 6-bromo-4-(4-(4-fluoro-2-hydroxybenzyl)piperazin-1-yl)-1-methyl-2-oxo-1,2-dihydro-1,5-naphthyridine-3-carbonitrile] | – | 84 nM | – | – | 48 nM | 200 nM | 8.1 µM | > 240 µM
Cn1c(=O)c(C#N)c(N2CCN(Cc3cccc(F)c3)CC2)c2nc(Cl)ccc21 [Example 321, 6-chloro-4-{4-[(3-fluorophenyl)methyl]piperazin-1-yl}-1-methyl-2-oxo-1,2-dihydro-1,5-naphthyridine-3-carbonitrile] | – | 160 nM | – | – | 340 nM | 310 nM | 12 µM | > 240 µM
CCC(c1ccc(F)cc1)N1CCN(c2c(C#N)c(=O)n(C)c3ccc(Br)nc23)CC1 (single isomer, unassigned) [Example 26, 6-bromo-4-{4-[1-(4-fluorophenyl)propyl]piperazin-1-yl}-1-methyl-2-oxo-1,2-dihydro-1,5-naphthyridine-3-carbonitrile] | 140 nM | 4300 nM | – | – | 6700 nM | – | 18 µM | 85 µM
Cn1c(=O)c(C#N)c(N2CCN(Cc3ccc(F)cc3Cl)CC2)c2nc(Cl)ccc21 [Example 287, 6-chloro-4-{4-[(2-chloro-4-fluorophenyl)methyl]piperazin-1-yl}-1-methyl-2-oxo-1,2-dihydro-1,5-naphthyridine-3-carbonitrile] | – | 2100 nM | – | – | 18000 nM | 100 nM | 29 µM | > 240 µM
Cn1c(=O)c(C#N)c(N2CCN(Cc3ccc(Cl)c(O)c3)CC2)c2nc(Cl)ccc21 [Example 323, 6-chloro-4-{4-[(4-chloro-3-hydroxyphenyl)methyl]piperazin-1-yl}-1-methyl-2-oxo-1,2-dihydro-1,5-naphthyridine-3-carbonitrile] | – | 140 nM | – | – | 1200 nM | 340 nM | 27 µM | 11 µM
Cn1c(=O)c(C#N)c(N2CCN(Cc3cc(C#N)ccc3F)CC2)c2nc(Cl)ccc21 [Example 340, 6-chloro-4-{4-[(5-cyano-2-fluoro-phenyl)methyl]piperazin-1-yl}-1-methyl-2-oxo-1,2-dihydro-1,5-naphthyridine-3-carbonitrile] | – | 4200 nM | – | – | 3400 nM | 690 nM | 17 µM | > 240 µM
